The source of these data is article PMC8791944, “GLUT3 inhibitor discovery through in silico ligand screening and in vivo validation in eukaryotic expression systems” (Scientific Reports, 2022).

Test [1] relates to BeWo (choriocarcinoma) cells. The test can be described thus: MTT cancer cell viability assay, BeWo. It is filed as cell-based. The following applies: Homo sapiens, 48 h. The method, then:
(§1) A possible therapeutic application of GLUT3 inhibitors is in oncology, especially for cancers in which GLUT3 is a poor prognosis marker. We tested the effect of GLUT3 inhibitors on the cell viability of several different cancer lines: myeloid leukemia (HL60 and U937), lung cancer (A549), colorectal adenocarcinoma (Caco-2), breast cancer (MCF7), hepatocellular carcinoma (HepG2), and choriocarcinoma (BeWo) cells. GLUT3 inhibitors, at five different concentrations, ranging from 2 to 100 µM, were incubated with cancer cells for 48 h. Then, cell viability was assessed with the MTT assay. […] G3iC and G3iD also affected the leukemia cell lines but at double the concentrations of G3iB and G3iE. […] G3iB had some cytotoxic activity (CC50 < 50 µM) against the highest number of cancer cell lines (HL60, U937, A549, HepG2, and MCF7).
(§2) Cancer cell viability in the presence of GLUT3 inhibitors was assayed using the MTT Cell Viability Kit (Biotium Inc, Freemont, CA) according to manufacturer’s instructions. Cancer cells were grown in the corresponding medium, at 37 °C and 5% CO2 in a humidified incubator. The media (Gibco) for leukemia cells (HL60 and U937), A549, MCF7, BeWo, and HepG2 cells were RPMI 1640, Ham’s F-12K, DMEM:F-12, Ham’s F-12K, and EMEM, respectively, all supplemented with 10% (v/v) fetal bovine serum (HyClone). Caco-2 cells were grown in EMEM supplemented with 20% (v/v) fetal bovine serum. Cells were detached from the culture flasks with Accutase (Innovative Cell Technologies, Inc., San Diego, CA) according to manufacturer’s instructions. Cells were seeded in 96-well plates, at a density of ~ 30,000 cells/well (in 100 µl fresh media) and incubated with varying concentrations of GLUT3 inhibitors for 48 h, at 37 °C and 5% CO2 in a humidified incubator. The inhibitors were dissolved in DMSO, at 100× the final concentration, so that 1 µl of the stock inhibitor concentration was added per well, making the final DMSO concentration 1% (v/v). Therefore, controls for 100% cell viability were cells with 1% (v/v) DMSO without the inhibitors. Controls for 0% cell viability were cells treated with 0.3% (v/v) Tween 20. For MTT assay, 10 µl of MTT reagent was added in each well followed by 3–4 h incubation at 37 °C and 5% CO2 in a humidified incubator. After thoroughly mixing in 200 µl DMSO in each well, the plates were put into a plate reader (BioTek Synergy H1), and the absorbances at 570 nm and 630 nm were measured with Gen5 program (BioTek Inc.). The experimental values represent Abs570 nm-Abs630 nm with each inhibitor condition and control being the average of three wells.
(§3) Supplementary Figure S8. Effect of GLUT3 inhibitors on the viability of various cancer cell lines. Cell viability was determined by MTT assay in A549 (lung cancer), BeWo (choriocarcinoma), Caco-2 (colon cancer), HepG2 (liver cancer), HL-60 (leukemia), MCF7 (breast cancer), and U937 (histiocytic lymphoma) cell lines. GLUT3 inhibitors at concentrations of 2, 5, 10, 20, 50, and 100 µM were incubated with cells in 96-well plates for 48 hours before the addition of the MTT reagent.

For test [2], the system named is Caco-2 (colon cancer) cells. The test can be described thus: MTT cancer cell viability assay, Caco-2. It is filed as cell-based. To be noted: Homo sapiens. The method, then:
as §1, §2, §3

Setting [3] is: Caco-2, Caco2, 48 h, MTT, read-out: CC50.

Where two headings read alike, the source gives them in different places.

The CC50 is the concentration giving 50% cytotoxicity. As for `COc1ccccc1-n1c(/C=C/c2ccc(O)cc2)nc2ccc(Br)cc2c1=O` [G3iB, 6-bromo-2-[(E)-2-(4-hydroxyphenyl)ethenyl]-3-(2-methoxyphenyl)quinazolin-4(3H)-one], the CC50 was > 50 µM in test [1] and > 50 µM in test [2] (Caco-2, 48 h).
Consider `O=C(Nc1cccc(Cl)c1)c1cccc(NC(=O)c2cccc([N+](=O)[O-])c2)c1` [G3iE, N-{3-[(3-chloroanilino)carbonyl]phenyl}-3-nitrobenzamide], for which the CC50 in test [1] and in test [2] (setting [3]) was > 50 µM in each case.
`Cc1ccccc1CN(Cc1nnc(C(C)(C)C)o1)c1ccc2nc(O)[nH]c2c1` [G3iF]: the CC50 in test [1] was ~100 µM; in test [2] (setting [3]), > 100 µM.
The corresponding values for `Cc1cccnc1OC1CCN(c2cc(N3CCCC3CO)ncn2)CC1` (stereo not drawn) [G3iC] are > 100 µM and > 100 µM.
On to `Cc1cc(NC(=O)CCC2Cc3ccccc3NC2=O)nc(-c2ccccc2)n1` (stereo not drawn) [G3iD], for which the CC50 in test [1] and in test [2] (setting [3]) was > 100 µM in each case.
As to `CC(=O)Nc1ccc(S(=O)(=O)Nc2ccc(Nc3cc(N(C)C)nc(C)n3)cc2)cc1` [G3iA, N-(4-{[(4-{[6-(dimethylamino)-2-methylpyrimidin-4-yl]amino}phenyl)amino]sulfonyl}phenyl)acetamide], the CC50 in test [1] and in test [2] (setting [3]) was > 100 µM in each case.
